Source: patent US11155539B2, “4-pyridinylmethyl-morpholine derivatives and the use thereof as medicament” (Boehringer Ingelheim International GmbH, priority 2018, dated 2021)
One block for each molecule: values may come before it.

Key:
Nav1.6 = Nav1.6 (Homo sapiens, UniProt Q9UQD0); test: Nav 1.6 inhibition, IonWorks Quattro electrophysiology; format: cell-based; settings: for inhibition of Nav1.6 currents (in words): reference compounds, FIG. 1 and FIG. 2; for inhibition at 1 µM / inhibition at 5 µM: normalized to vehicle control (0%) and maximal inhibition control (100%)
Protocol: Determination of Nav 1.6.Inhibition
IonWorks Quattro electrophysiological platform
The compounds were prepared in DMSO at 300× the final assay concentrations of 1 and 5 μM.
The 300×DMSO stock solutions were transferred into assay plates where 2 μl per well of each 300× stock solution were placed. All assay plates were stored at −80° C. until the day of assay.
On the day of the assay, the appropriate assay plate was thawed at room temperature, centrifuged, and 198 μl of external recording solution was added and mixed thoroughly. This provided a 1:100 dilution. A further 1:3 dilution occurred upon addition to the cells in the IonWorks Quattro electrophysiological platform, giving a 1:300 dilution in total. On each assay plate, at least 8 wells were reserved for vehicle control (0.3% DMSO) and at least 8 wells for each positive control specific to the cell line tested. The positive controls were tested at a maximal blocking and an approximate IC50 concentration. As positive control Lidocaine at concentrations of 30 and 1000 μM was used.
The solutions for recording Nav1.6 currents were as follows:
Amphotericin B was used to obtain electrical access to the cell interior at a final concentration of 200 μg/ml in internal recording solution.
State-dependent inhibition: Sodium channels when held at depolarized potential or long test pulse, the channels open and inactivate and then stay inactivated until the membrane potential is stepped back to hyperpolarized potentials, when the inactivated channels recover from inactivation into closed state.
Cells were held at −120 mV. In order to completely inactivate the sodium channels (pulse 1), the cells were pulsed to +0 mV for 2500 ms and stepped back to −120 mV for 10 ms (to completely recover from inactivation, however channels that had drugs bound to them will not recover from inactivation) before stepping to +0 mV for 20 ms (pulse 2).
Both the positive and vehicle control data associated with each cell line assayed are shown below as an example. The mean is shown for each positive and negative control as solid symbol with the total number of individual well replicates given next to the solid symbol. In addition, the individual data of each well are shown on the graph as open symbols so that the variation about the mean value can be readily assessed.
Shown below are the assay controls for the Nav1.6 IonWorks Quattro assay.
Tables 3 and 4 show the normalized percentage inhibition of Nav1.6 channel. […] (see also the figure Assay Control Results above).

NMDA NR1/NR2B receptor = biological target: T1, NMDA NR1/NR2B receptor (Homo sapiens, UniProt Q05586+Q13224); test: In vitro NMDA NR1/NR2B cell assay (FLIPR, intracellular calcium induced by glycine/glutamate); format: cell-based; settings: HEK293 cells expressing NMDA NR1/NR2B; 20 μM glycine, 1 μM glutamate; read-out: IC50 (in vitro NR2B affinity, FLIPR assay)
T1 construct: host or cells: HEK293, tetracycline-inducible expression
Protocol: A human HEK293 cell line with tetracyclin-inducible expression of NMDA NR1/NR2B receptor was used as a test system for compound efficacy and potency. The cell line was purchased from ChanTest, Catalog #CT6121. Compound activity was determined by measuring the effect of compounds on intracellular calcium concentration induced by glycine/glutamate agonism in a FLIPRtetra system (Molecular Devices).
The cells were obtained as frozen cells in cryo-vials and stored until use at −150° C. Cells were grown in culture medium (DMEM/F12, 10% FBS, 5 μg/mL Blasticidin, 150 μg/mL Zeozin, 500 μg/mL Geneticin). […] For sub-culturing the cells were detached from flasks by Versene. For the assay, cells were detached, washed twice with induction medium (DMEM/F12 without glutamine, 10% FBS, 2 μg/mL Tetracycline, 2 mM Ketamine) and seeded to 384 well pure coat amine plates (Becton Dickinson, 50000 cells per well in 50 μl) 48 h prior to assay in induction medium.
The test compounds were dissolved in 100% DMSO at a concentration of 10 mM and in a first step diluted in DMSO to a concentration of 5 mM, followed by serial dilution steps in 100% DMSO. Dilution factor and number of dilution steps may vary according to needs. Typically 8 different concentrations by 1:5 dilutions were prepared in duplicate, further intermediate dilutions (1:37.5) of the substances were carried out with aqueous assay buffer (137 mM NaCl, 4 mM KCl, 1.8 mM CaCl2, 10 mM HEPES, 10 mM Glucose, pH 7.4) resulting in a compound concentration 3 times above the final test concentration and DMSO at 2.7% resulting in 0.9% final DMSO concentration in the assay.
At the assay day cells were washed 3× with assay buffer (as described above), 10 μL buffer remained in the wells after washing. 10 μL Ca kit loading buffer (AAT Bioquest; prepared from the kit containing the following components: Component A: Fluo-8 NW dissolved in 200 μL DMSO and 20 μl of this solution are mixed with 10 ml buffer prepared out of component B and C, Component B: 10× Pluronic® F127 Plus diluted 1:10 in component C, Component C: HHBS (Hanks with 20 mM Hepes) was added to the cells and the plates were incubated with lid for 60 minutes at room temperature. 20 μl assay buffer containing 60 μM glycine (20 μM final) and 3 μM glutamate (1 μM final) was added to column 1-23, column 24 got assay buffer without glycine/glutamate to serve as negative unstimulated control. Fluorescence (indicating the calcium influx as a result of the NR1/NR2B ion channel activation) was read on the FLIPRtetra device for 60 seconds to monitor the glutamate induced effects. After 2 minutes 20 μL of compound dilution prepared as described above or controls (row 1-22) in assay buffer were carefully added to the wells. […] The average of 2 measurements at 5 minutes and […] 10 seconds after compound addition is calculated and further used for IC50 calculations. Each assay microtiter compound dilution plate contained wells (in column 23 or 24) with DMSO controls instead of compound as controls for glycine/glutamate induced fluorescence (high controls) and wells with 1 μM of a reference NR2B NAM as low controls (Compound 22; reference: Layton, Mark E et al, ACS Chemical Neuroscience 2011, 2(7), 352-362).
The output file of the reader contains the well number and measured average fluorescence units. For data evaluation and calculation, the measurement of the low control was set as 0% control and the measurement of the high control was set as 100% control. The IC50 values were calculated using the standard 4 parameter logistic regression formula. Calculation: [y=(a−d)/(1+(x/c)^b)+d], a=low value, d=high value; x=conc M; c=IC50 M; b=slope.

[1] = Metabolic stability in pooled human liver microsomes; format: in vitro ADME; settings: pH 7.6, 1 μM compound, 37° C., NADPH, read-out: Half-life - t½ human liver microsomes
Excerpt: Stability in human liver microsomes refers to the susceptibility of compounds to biotransformation in the context of selecting and/or designing drugs with favorable pharmacokinetic properties. The primary site of metabolism for many drugs is the liver. Human liver microsomes contain the cytochrome P450s (CYPs), and thus represent a model system for studying drug metabolism in vitro Enhanced stability in human liver microsomes is associated with several advantages, including increased bioavailability and adequate half-life, which can enable lower and less frequent dosing of patients. Thus, enhanced stability in human liver microsomes is a favorable characteristic for compounds that are to be used for drugs.
The metabolic degradation of the test compound was assayed at 37° C. with pooled human liver microsomes. The final incubation volume of 60 μl per time point contains TRIS buffer pH 7.6 at room temperature (0.1 M), magnesium chloride (5 mM aqueous solution), microsomal protein (1 mg/mL for human) and the test compound at a final concentration of 1 μM. Following a short preincubation period at 37° C., the reactions were initiated by addition of betanicotinamide adenine dinucleotide phosphate, reduced form (NADPH, 1 mM), and terminated by transferring an aliquot into acetonitril after different time points. After centrifugation (10000 g, 5 min), an aliquot of the supernatant was assayed by HPLC-MS/MS as described above for the MDCK assay P-gp for the amount of parent compound. The half-life was determined by the slope of the semi-logarithmic plot of the concentration-time profile.

MDR1 (P-gp) = biological target: T2, MDR1 (P-gp) (Homo sapiens, UniProt P08183); test: MDCK assay P-gp (permeability across MDCK-MDR1 monolayers); format: in vitro ADME; settings: for Papp A→B at 2 h: apical-to-basal, MDCK-MDR1 monolayers, pH 7.4; for efflux ratio at 2 h: pH 7.4, Papp (b-a) divided by Papp (a-b), MDCK-MDR1, read-out: efflux ratio PEBA/PEAB
T2 construct: expressed in transfected cells; host or cells: MDCKII (Madin-Darby canine kidney)
Protocol: The MDCK assays provide information on the potential of a compound to pass the blood brain barrier. Permeability measurements across polarized, confluent MDCK-MDR1 cell monolayers grown on permeable filter supports are used as an in vitro absorption model: apparent permeability coefficients (PE) of the compounds across the MDCK-MDR1 cell monolayers are measured (pH 7.4, 37° C.) in apical-to-basal (AB) and basal-to-apical (BA) transport direction. The AB permeability (PEAB) represents drug absorption from the blood into the brain and the BA permeability (PEBA) drug efflux from the brain back into the blood via both, passive permeability as well as active transport mechanisms mediated by efflux and uptake transporters that are expressed on the MDCK-MDR1 cells, predominantly by the overexpressed human MDR1. Identical or similar permeabilities in both transport directions indicate passive permeation (PEBA/PEAB≤1), vectorial permeability points to additional active transport mechanisms. Higher PEBA than PEAB (PEBA/PEAB>5) indicates the involvement of active efflux mediated by MDR1, which might compromise the goal to achieve sufficient brain exposure. Therefore, this assay provides valuable support for selection of compounds applicable for further in vivo testing. High permeability not limited by efflux at the blood brain barrier is a favorable characteristic for compounds that are to be used for drugs acting primarily in the CNS.
Apparent permeability coefficients (Papp) of the compounds across the MDCK-MDR1 monolayers (MDCKII cells transfected with human MDR1 cDNA expression plasmid) are measured in apical-to-basal (AB) and basal-to-apical (BA) direction. MDCK-MDR1 cells (6×10^5 cells/cm^2) are seeded on filter inserts (Corning, Transwell, polycarbonate, 0.4 μm pore size) and cultured for 9 to 10 days. Compounds dissolved in DMSO stock solution (1-20 mM) are diluted with HTP-4 aqueous buffer (128.13 mM NaCl, 5.36 mM KCl, 1 mM MgSO4, 1.8 mM CaCl2, 4.17 mM NaHCO3, 1.19 mM Na2HPO4, 0.41 mM NaH2PO4, 15 mM HEPES, 20 mM glucose, pH 7.4) supplemented with 0.25% BSA to prepare the transport solutions (final concentration: 1 or 10 μM, final DMSO<=0.5%). The transport solution is applied to the apical or basolateral donor side for measuring A-B or B-A permeability, respectively. The receiver side contains HTP-4 buffer supplemented with 0.25% BSA. Samples are collected at the start and end of experiment from the donor and at various time intervals for up to 2 hours also from the receiver side for concentration measurement by HPLC-MS/MS (RapidFire High-throughput MS System (Agilent) coupled to QTrap 6500 (AB Sciex) or TSQ Vantage (Thermo Scientific)). Sampled receiver volumes are replaced with fresh receiver solution. Efflux ratio is calculated dividing the Papp (b-a) values by the Papp (a-b) values.

T2 sequence (P08183 whole entry): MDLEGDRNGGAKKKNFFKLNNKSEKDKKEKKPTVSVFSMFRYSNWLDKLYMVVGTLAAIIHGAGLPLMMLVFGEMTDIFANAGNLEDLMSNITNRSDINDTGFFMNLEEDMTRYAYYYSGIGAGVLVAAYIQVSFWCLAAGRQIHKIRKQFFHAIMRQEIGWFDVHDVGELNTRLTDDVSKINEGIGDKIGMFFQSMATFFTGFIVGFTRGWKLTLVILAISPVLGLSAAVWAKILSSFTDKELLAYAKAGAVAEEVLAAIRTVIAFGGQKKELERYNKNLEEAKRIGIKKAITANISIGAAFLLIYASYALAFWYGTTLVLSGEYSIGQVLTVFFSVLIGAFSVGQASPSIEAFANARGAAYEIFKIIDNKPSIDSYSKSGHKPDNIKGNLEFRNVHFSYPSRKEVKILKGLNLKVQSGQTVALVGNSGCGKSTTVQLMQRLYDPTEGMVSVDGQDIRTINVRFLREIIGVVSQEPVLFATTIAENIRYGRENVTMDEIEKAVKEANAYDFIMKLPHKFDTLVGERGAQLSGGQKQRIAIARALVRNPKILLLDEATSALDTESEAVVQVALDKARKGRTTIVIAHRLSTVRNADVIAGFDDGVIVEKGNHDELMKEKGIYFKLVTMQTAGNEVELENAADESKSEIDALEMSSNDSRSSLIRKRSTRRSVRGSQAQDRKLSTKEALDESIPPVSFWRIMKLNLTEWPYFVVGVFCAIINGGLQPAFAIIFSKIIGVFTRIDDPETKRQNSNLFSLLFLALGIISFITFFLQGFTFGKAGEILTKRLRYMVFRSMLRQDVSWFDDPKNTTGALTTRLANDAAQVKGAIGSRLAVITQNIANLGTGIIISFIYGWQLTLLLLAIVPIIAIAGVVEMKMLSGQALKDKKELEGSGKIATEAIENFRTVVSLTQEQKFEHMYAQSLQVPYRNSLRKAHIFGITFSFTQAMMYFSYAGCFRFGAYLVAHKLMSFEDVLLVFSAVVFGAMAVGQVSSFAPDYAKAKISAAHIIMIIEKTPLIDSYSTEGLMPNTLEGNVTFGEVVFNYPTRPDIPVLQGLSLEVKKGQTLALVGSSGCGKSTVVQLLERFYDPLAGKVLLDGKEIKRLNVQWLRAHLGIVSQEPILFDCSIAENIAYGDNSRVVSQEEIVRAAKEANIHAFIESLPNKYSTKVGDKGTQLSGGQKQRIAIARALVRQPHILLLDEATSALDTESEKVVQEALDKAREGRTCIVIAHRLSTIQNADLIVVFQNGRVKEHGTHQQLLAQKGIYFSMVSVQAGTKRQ
T1 sequence (Q13224 27-1484, other chains not shown): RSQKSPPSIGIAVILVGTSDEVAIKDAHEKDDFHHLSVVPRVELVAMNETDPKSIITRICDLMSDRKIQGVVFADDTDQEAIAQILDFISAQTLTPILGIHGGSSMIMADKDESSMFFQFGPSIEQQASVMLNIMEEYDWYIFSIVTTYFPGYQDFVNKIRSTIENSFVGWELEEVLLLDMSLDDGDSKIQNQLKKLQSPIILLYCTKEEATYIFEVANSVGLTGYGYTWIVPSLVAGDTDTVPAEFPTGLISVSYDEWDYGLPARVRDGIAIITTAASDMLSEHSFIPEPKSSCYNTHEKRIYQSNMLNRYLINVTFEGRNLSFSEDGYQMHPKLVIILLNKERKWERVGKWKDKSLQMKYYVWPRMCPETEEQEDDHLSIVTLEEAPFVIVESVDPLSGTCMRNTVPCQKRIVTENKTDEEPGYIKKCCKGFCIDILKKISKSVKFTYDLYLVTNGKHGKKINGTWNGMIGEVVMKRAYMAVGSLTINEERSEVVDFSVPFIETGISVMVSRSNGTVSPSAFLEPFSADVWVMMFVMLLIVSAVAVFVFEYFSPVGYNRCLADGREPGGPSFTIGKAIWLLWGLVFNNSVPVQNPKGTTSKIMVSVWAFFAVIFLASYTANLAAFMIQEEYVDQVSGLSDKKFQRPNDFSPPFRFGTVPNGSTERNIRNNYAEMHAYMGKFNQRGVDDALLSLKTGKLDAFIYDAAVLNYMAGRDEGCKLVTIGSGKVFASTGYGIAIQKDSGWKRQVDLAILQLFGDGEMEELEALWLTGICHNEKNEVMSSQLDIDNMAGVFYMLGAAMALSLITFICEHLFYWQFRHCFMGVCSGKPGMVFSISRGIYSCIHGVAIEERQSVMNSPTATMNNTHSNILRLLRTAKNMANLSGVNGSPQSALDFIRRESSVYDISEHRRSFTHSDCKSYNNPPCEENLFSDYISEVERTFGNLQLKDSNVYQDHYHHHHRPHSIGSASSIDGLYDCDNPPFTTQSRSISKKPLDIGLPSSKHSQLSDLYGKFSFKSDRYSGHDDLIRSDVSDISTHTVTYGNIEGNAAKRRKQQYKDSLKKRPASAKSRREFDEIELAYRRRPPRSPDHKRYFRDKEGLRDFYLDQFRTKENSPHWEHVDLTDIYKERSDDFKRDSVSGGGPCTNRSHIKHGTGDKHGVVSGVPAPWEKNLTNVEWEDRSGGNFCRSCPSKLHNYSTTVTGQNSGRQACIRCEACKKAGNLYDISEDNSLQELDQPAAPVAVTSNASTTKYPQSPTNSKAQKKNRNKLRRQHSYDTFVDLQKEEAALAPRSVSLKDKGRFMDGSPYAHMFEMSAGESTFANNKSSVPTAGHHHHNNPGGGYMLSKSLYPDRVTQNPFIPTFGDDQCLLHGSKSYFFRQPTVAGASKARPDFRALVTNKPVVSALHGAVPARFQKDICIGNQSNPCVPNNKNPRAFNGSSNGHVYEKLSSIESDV
Nav1.6, sequence (Q9UQD0 whole entry): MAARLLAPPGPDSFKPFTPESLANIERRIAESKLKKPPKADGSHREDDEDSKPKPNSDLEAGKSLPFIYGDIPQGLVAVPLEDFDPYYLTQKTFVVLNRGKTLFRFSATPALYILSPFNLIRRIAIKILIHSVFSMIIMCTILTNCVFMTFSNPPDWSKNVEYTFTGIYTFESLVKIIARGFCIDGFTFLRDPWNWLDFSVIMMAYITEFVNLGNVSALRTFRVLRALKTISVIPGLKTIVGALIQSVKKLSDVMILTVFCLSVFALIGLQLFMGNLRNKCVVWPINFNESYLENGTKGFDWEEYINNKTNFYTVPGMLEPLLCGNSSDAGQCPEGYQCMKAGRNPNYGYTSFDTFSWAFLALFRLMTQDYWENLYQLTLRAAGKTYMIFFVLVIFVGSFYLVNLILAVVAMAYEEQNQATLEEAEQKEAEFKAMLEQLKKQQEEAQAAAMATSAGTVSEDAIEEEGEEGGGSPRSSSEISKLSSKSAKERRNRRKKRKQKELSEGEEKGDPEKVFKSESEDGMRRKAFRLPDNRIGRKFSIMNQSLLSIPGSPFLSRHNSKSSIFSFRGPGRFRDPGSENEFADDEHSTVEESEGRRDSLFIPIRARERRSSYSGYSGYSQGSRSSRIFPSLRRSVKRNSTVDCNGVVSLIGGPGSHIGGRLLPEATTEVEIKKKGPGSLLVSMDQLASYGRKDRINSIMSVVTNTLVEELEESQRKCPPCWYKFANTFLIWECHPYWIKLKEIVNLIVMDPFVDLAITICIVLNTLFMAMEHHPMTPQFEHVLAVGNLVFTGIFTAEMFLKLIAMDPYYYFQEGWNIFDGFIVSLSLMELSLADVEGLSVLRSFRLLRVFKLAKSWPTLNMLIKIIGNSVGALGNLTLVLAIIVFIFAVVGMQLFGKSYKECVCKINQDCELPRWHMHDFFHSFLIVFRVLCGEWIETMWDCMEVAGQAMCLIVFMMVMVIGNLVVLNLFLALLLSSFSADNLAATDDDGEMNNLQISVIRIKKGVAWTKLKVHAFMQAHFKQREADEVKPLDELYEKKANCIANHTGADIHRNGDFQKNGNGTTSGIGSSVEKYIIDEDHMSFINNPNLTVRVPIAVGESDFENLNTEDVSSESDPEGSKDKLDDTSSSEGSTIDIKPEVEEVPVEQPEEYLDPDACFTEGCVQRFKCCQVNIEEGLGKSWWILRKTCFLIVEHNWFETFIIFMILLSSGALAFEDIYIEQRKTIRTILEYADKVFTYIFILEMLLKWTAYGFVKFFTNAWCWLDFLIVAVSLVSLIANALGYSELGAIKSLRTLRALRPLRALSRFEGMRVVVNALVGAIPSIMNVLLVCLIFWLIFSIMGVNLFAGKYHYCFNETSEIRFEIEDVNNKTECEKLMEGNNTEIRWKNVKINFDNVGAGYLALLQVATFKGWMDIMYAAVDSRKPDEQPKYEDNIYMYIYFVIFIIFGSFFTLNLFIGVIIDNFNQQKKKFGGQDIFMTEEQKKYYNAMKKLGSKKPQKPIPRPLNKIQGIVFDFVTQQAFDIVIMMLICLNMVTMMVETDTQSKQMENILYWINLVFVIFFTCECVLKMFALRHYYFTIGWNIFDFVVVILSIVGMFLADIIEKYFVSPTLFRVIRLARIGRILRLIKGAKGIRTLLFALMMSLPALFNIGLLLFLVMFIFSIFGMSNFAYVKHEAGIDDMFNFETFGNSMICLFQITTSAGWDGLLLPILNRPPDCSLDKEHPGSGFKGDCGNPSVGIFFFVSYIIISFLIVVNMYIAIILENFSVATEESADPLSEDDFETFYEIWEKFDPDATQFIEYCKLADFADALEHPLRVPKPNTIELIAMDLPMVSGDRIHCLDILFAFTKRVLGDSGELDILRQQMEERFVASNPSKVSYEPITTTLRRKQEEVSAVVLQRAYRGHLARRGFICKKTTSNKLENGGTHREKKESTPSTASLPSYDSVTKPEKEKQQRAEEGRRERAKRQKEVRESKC

SMILES: CCCCNc1ccc(C(=O)OCCN(C)C)cc1 [Tetracaine, reference compound]
inhibition of Nav1.6 currents (in words) (Nav1.6): much stronger at depolarized potentials than at hyperpolarized potential

IC50 (NMDA NR1/NR2B receptor): 198 nM
SMILES: CNC(=O)[C@@H]1CN(Cc2ccc(Oc3ccc(F)cc3)nc2)CCO1 [Example 14]

half-life at 1 μM [1]: > 2.17 h
inhibition at 1 µM (Nav1.6): 4.2%
inhibition at 5 µM (Nav1.6): -3.6%
Papp A→B at 2 h (MDR1 (P-gp)): 72 ×10⁻⁶ cm/s
efflux ratio at 2 h (MDR1 (P-gp)): 0.6
SMILES: CNC(=O)C1CN(Cc2ccc(Oc3ccc(F)cc3F)nc2)CCO1 (stereo not shown) [Example 11]

IC50 (NMDA NR1/NR2B receptor): 203 nM
SMILES: CNC(=O)[C@@H]1CN(Cc2ccc(Oc3c(F)cccc3F)nc2)CCO1 [Example 37]

half-life at 1 μM [1]: > 2.17 h
inhibition at 1 µM (Nav1.6): 5.1%
inhibition at 5 µM (Nav1.6): 10.2%
Papp A→B at 2 h (MDR1 (P-gp)): 80 ×10⁻⁶ cm/s
efflux ratio at 2 h (MDR1 (P-gp)): 0.7
SMILES: CNC(=O)C1CN(Cc2ccc(Oc3ccc(C)cc3F)nc2)CCO1 (stereo not shown) [Example 12]

IC50 (NMDA NR1/NR2B receptor): 457 nM
SMILES: CNC(=O)[C@@H]1CN(Cc2ccc(Oc3ccccc3)cn2)CCO1 [Example 35]

IC50 (NMDA NR1/NR2B receptor): 282 nM
SMILES: CNC(=O)[C@@H]1CN(Cc2ccc(Oc3c(F)cccc3F)cn2)CCO1 [Example 39]

half-life at 1 μM [1]: > 2.17 h
inhibition at 1 µM (Nav1.6): 0.7%
inhibition at 5 µM (Nav1.6): 0.4%
Papp A→B at 2 h (MDR1 (P-gp)): 92 ×10⁻⁶ cm/s
efflux ratio at 2 h (MDR1 (P-gp)): 0.4
SMILES: CNC(=O)C1CN(Cc2ccc(Oc3ccc(F)cc3)nc2)CCO1 (stereo not shown) [Example 14]

IC50 (NMDA NR1/NR2B receptor): 117 nM
SMILES: CNC(=O)[C@@H]1CN(Cc2ccc(Oc3ccc(C)cc3F)nc2)CCO1 [Example 12]

IC50 (NMDA NR1/NR2B receptor): 419 nM
SMILES: CNC(=O)[C@@H]1CN(Cc2ccc(Oc3c(C)cccc3F)nc2)CCO1 [Example 38]

IC50 (NMDA NR1/NR2B receptor): 69 nM
SMILES: CNC(=O)[C@@H]1CN(Cc2ccc(Oc3ccc(Cl)cc3F)nc2)CCO1 [Example 15]

IC50 (NMDA NR1/NR2B receptor): 353 nM
SMILES: CNC(=O)[C@@H]1CN(Cc2ccc(Oc3ccccc3)nc2)CCO1 [Example 36]

IC50 (NMDA NR1/NR2B receptor): 205 nM
SMILES: CNC(=O)[C@@H]1CN(Cc2ccc(Oc3ccc(Cl)cc3)nc2)CCO1 [Example 16]

IC50 (NMDA NR1/NR2B receptor): 286 nM
SMILES: CNC(=O)[C@@H]1CN(Cc2ccc(Oc3cc(F)ccc3Cl)nc2)CCO1 [Example 41]

IC50 (NMDA NR1/NR2B receptor): 452 nM
SMILES: CNC(=O)[C@@H]1CN(Cc2ccc(Oc3cc(F)ccc3F)nc2)CCO1 [Example 40]

IC50 (NMDA NR1/NR2B receptor): 442 nM
SMILES: CNC(=O)[C@@H]1CN(Cc2ccc(Oc3ccc(C)cc3C)nc2)CCO1 [Example 13]

SMILES: CCN(CC)CC(=O)Nc1c(C)cccc1C [Lidocaine, reference compound]
inhibition at 1000 µM (Nav1.6; read-out: maximum inhibition at P1 (not normalized)): 46.4 to 47.2%
inhibition of Nav1.6 currents (in words) (Nav1.6): inhibited evoked currents in a concentration and use dependent manner

IC50 (NMDA NR1/NR2B receptor): 103 nM
SMILES: CNC(=O)[C@@H]1CN(Cc2ccc(Oc3ccc(F)cc3F)nc2)CCO1 [Example 11]
